Data published in ChEMBL document CHEMBL5036306 (J Med Chem, 2021).
Active and inactive are the calls of the source. The rule behind the calls is not given here.

Tests used:
[1] = target: T1, Protein deacetylase HDAC6 (Mus musculus) (UniProt Q9Z2V5); test: Inhibition of HDAC6 in mouse HT-22 cells assessed as increase in acetylated tubulin level at […] after 24 hrs by Western blotting analysis; format: cell-based
T1 sequence (whole entry): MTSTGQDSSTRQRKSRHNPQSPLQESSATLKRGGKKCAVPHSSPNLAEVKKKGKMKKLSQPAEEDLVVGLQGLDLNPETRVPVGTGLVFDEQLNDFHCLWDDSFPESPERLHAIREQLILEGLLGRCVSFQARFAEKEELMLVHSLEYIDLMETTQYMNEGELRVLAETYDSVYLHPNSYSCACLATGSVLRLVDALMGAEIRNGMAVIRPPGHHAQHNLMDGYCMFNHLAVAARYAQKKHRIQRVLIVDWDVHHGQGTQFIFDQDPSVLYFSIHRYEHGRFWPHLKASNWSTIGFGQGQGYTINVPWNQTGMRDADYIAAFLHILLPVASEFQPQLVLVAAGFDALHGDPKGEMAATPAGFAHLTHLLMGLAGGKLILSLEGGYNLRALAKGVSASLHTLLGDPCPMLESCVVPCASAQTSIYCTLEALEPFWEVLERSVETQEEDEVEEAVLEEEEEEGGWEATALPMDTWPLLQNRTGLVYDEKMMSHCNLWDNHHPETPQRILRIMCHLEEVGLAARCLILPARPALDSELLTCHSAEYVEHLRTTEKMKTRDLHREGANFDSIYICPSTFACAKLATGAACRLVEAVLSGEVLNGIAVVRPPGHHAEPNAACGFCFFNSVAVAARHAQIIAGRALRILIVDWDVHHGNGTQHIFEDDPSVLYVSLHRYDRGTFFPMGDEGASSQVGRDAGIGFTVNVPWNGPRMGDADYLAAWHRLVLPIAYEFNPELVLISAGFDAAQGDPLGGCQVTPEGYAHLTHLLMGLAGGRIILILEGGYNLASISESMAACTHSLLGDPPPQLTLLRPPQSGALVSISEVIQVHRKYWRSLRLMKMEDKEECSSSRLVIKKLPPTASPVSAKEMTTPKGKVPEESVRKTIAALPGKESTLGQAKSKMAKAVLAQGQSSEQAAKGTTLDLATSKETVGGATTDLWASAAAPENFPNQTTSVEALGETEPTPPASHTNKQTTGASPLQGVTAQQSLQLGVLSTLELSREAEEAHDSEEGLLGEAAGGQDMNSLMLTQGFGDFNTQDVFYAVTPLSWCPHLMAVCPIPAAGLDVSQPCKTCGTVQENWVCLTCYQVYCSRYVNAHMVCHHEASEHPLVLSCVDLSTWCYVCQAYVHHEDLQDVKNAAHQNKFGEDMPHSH

[2] = target: T1, Protein deacetylase HDAC6 (Mus musculus); test: Inhibition of HDAC6 in mouse HT-22 cells assessed as increase in acetylated tubulin level at 20 to 500 nM after 24 hrs by Western blotting analysis; format: cell-based; settings: dose 20-500 nM
Mus musculus [3] = test: Anti-alzheimer activity against amyloid beta (25 to 35) induced working memory deficit in mouse assessed as increase in spontaneous alternation performance at 0.3 to 1 mg/kg, ip administered for 7 days and measured on day 8 by Y-maze test; format: functional, organism-based; settings: dose 0.3-1 mg/kg, time 8.0 day
N9 [4] = test: Immunomodulatory activity in mouse N9 microglial cells assessed as reduction in LPS-induced IL1beta level incubated for 24 hrs by colorimetric assay; format: functional, cell-based; settings: dose 0.1-5 µM
Mus musculus [5] = test: Anti-alzheimer activity against amyloid beta (25 to 35) induced working memory deficit mouse assessed as step-through latency time to enter dark compartment at 0.1 to 0.3 mg/kg, ip administered for 7 days and measured on day 9 days by passive avoidance test; format: functional, organism-based; settings: dose 0.1-0.3 mg/kg, time 9.0 day
N9 [6] = test: Immunomodulatory activity in mouse N9 microglial cells assessed as reduction in LPS-induced nitrite accumulation incubated for 24 hrs by Griess reagent based analysis; format: functional, cell-based; settings: dose 0.1-5 µM
Mus musculus [7] = test: Anti-alzheimer activity against amyloid beta (25 to 35) induced working memory deficit mouse assessed as step-through latency time to enter dark compartment at 1 mg/kg, ip administered for 7 days and measured on day 9 days by passive avoidance test; format: functional, organism-based; settings: time 9.0 day

SMILES | inhibition [1] | inhibition [2] | Activity (Mus musculus [3]) | Activity (N9 [4]) | Activity (Mus musculus [5]) | Activity (N9 [6]) | Activity (Mus musculus [7])
COc1ccc2c(c1)c(CCNC(C)=O)cn2Cc1ccc(C(=O)NO)cc1 | Active |  |  |  |  |  | 
COc1ccc2[nH]cc(CCN(Cc3ccc(C(=O)NO)cc3)C(=O)/C=C/c3ccc(O)c(OC)c3)c2c1 |  | Active | Active | Dose-Dependent Effect | Active | Dose-Dependent Effect | inactive
